Source: ChEMBL document CHEMBL2413072, “Synthesis and in vitro anticancer studies of novel C-2 arylidene congeners of lantadenes” (2013)

Experiments:
Assay type in all cases: functional
NCI-H522 = experiment: Growth inhibition of human NCI-H522 cells by sulforhodamine B assay
UACC-62 [1] = experiment: Growth inhibition of human UACC62 cells assessed as cell growth at 10^-8 M by sulforhodamine B assay; conditions: read-out: Activity
SNB-75 [2] = experiment: Growth inhibition of human SNB75 cells assessed as cell growth at 10^-6 M by sulforhodamine B assay; conditions: read-out: Activity
SK-MEL-2 = experiment: Growth inhibition of human SK-MEL-2 cells assessed as cell growth at 10^-6 M by sulforhodamine B assay; conditions: read-out: Activity
RXF 393 [3] = experiment: Growth inhibition of human RXF393 cells by sulforhodamine B assay
SNB-75 [4] = experiment: Growth inhibition of human SNB75 cells assessed as cell growth at 10^-8 M by sulforhodamine B assay; conditions: read-out: Activity
UACC-62 [5] = experiment: Growth inhibition of human UACC62 cells assessed as cell growth at 10^-4 M by sulforhodamine B assay; conditions: read-out: Activity
U-251 [6] = experiment: Growth inhibition of human U251 cells assessed as cell growth at 10^-6 M by sulforhodamine B assay; conditions: read-out: Activity
OVCAR-8 [7] = experiment: Growth inhibition of human OVCAR8 cells assessed as cell growth at 10^-6 M by sulforhodamine B assay; conditions: read-out: Activity
A498 = experiment: Growth inhibition of human A498 cells by sulforhodamine B assay
HCT-15 = experiment: Growth inhibition of human HCT15 cells assessed as cell growth at 10^-4 M by sulforhodamine B assay; conditions: read-out: Activity
MDA-MB-435 [8] = experiment: Growth inhibition of human MDA-MB-435 cells by sulforhodamine B assay
OVCAR-3 = experiment: Growth inhibition of human OVCAR3 cells by sulforhodamine B assay
MDA-MB-435 [9] = experiment: Growth inhibition of human MDA-MB-435 cells assessed as cell growth at 10^-8 M by sulforhodamine B assay; conditions: read-out: Activity
HOP-62 = experiment: Growth inhibition of human HOP62 cells by sulforhodamine B assay
NCI-H23 = experiment: Growth inhibition of human NCI-H23 cells by sulforhodamine B assay
[10] = Growth inhibition of human HCC2998 cells by sulforhodamine B assay
SNB-19 = experiment: Growth inhibition of human SNB19 cells by sulforhodamine B assay
COLO 205 = experiment: Growth inhibition of human COLO205 cells assessed as cell growth at 10^-6 M by sulforhodamine B assay; conditions: read-out: Activity
TK-10 = experiment: Growth inhibition of human TK10 cells assessed as cell growth at 10^-6 M by sulforhodamine B assay; conditions: read-out: Activity
SR = experiment: Growth inhibition of human SR cells assessed as cell growth at 10^-7 M by sulforhodamine B assay; conditions: read-out: Activity
OVCAR-8 [11] = experiment: Growth inhibition of human OVCAR8 cells assessed as cell growth at 10^-8 M by sulforhodamine B assay; conditions: read-out: Activity
CAKI-1 = experiment: Growth inhibition of human CAKI-1 cells assessed as cell growth at 10^-7 M by sulforhodamine B assay; conditions: read-out: Activity
SF-539 = experiment: Growth inhibition of human SF539 cells assessed as cell growth at 10^-4 M by sulforhodamine B assay; conditions: read-out: Activity
[12] = Growth inhibition of human Hs 578T cells assessed as cell growth at 10^-4 M by sulforhodamine B assay; conditions: read-out: Activity
786-0 = experiment: Growth inhibition of human 786-0 cells assessed as cell growth at 10^-7 M by sulforhodamine B assay; conditions: read-out: Activity
M14 = experiment: Growth inhibition of human M14 cells assessed as cell growth at 10^-6 M by sulforhodamine B assay; conditions: read-out: Activity
NCI-H226 [13] = experiment: Growth inhibition of human NCI-H226 cells assessed as cell growth at 10^-6 M by sulforhodamine B assay; conditions: read-out: Activity
[14] = Growth inhibition of human Hs 578T cells assessed as cell growth at 10^-8 M by sulforhodamine B assay; conditions: read-out: Activity
U-251 [15] = experiment: Growth inhibition of human U251 cells by sulforhodamine B assay
RXF 393 [16] = experiment: Growth inhibition of human RXF393 cells assessed as cell growth at 10^-8 M by sulforhodamine B assay; conditions: read-out: Activity
OVCAR-5 = experiment: Growth inhibition of human OVCAR5 cells assessed as cell growth at 10^-7 M by sulforhodamine B assay; conditions: read-out: Activity
T47D = experiment: Growth inhibition of human T47D cells assessed as cell growth at 10^-4 M by sulforhodamine B assay; conditions: read-out: Activity
PC-3 [17] = experiment: Growth inhibition of human PC3 cells by sulforhodamine B assay
PC-3 [18] = experiment: Growth inhibition of human PC3 cells assessed as cell growth at 10^-7 M by sulforhodamine B assay; conditions: read-out: Activity
BT-549 = experiment: Growth inhibition of human BT549 cells by sulforhodamine B assay
NCI-H226 [19] = experiment: Growth inhibition of human NCI-H226 cells assessed as cell growth at 10^-7 M by sulforhodamine B assay; conditions: read-out: Activity
[20] = read-out: LC50 (the source's name)
[21] = read-out: pLC50 (the source's name) (converted)

`C/C=C(/C)C(=O)O[C@@H]1CC(C)(C)C[C@H]2C3=CC[C@@H]4[C@@]5(C)CC[C@H](O)C(C)(C)[C@@H]5CC[C@@]4(C)[C@]3(C)CC[C@@]12C(=O)O` [Reduced Lantadene A] gave a GI50 (NCI-H522; read-out: GI50) of 2.18 µM, a CC50 (NCI-H522; [20]) of 32.4 µM and a TGI (NCI-H522; read-out: TGI) of 5.42 µM. For the same compound, the GI50 (NCI-H522; read-out: pGI50 (converted)) was 2.19 µM, the CC50 (NCI-H522; [21]) was 32.4 µM and the TGI (NCI-H522; read-out: pTGI (converted)) was 5.37 µM. The growth at 0.01 µM (UACC-62 [1]) was 96%, the growth at 1 µM (SNB-75 [2]) was 76% and the growth at 1 µM (SK-MEL-2) was 109%. The GI50 (RXF 393 [3]; read-out: GI50) was 1.77 µM, the CC50 (RXF 393 [3]; [20]) was 8.29 µM and the TGI (RXF 393 [3]; read-out: TGI) was 3.83 µM. It also gave a GI50 (RXF 393 [3]; read-out: pGI50 (converted)) of 1.78 µM, a CC50 (RXF 393 [3]; [21]) of 8.32 µM and a TGI (RXF 393 [3]; read-out: pTGI (converted)) of 3.8 µM. The growth at 0.01 µM (SNB-75 [4]) was 78%, the growth at 100 µM (UACC-62 [5]) was -70% and the growth at 1 µM (U-251 [6]) was 83%. It also gave a growth at 1 µM (OVCAR-8 [7]) of 97%, a GI50 (A498; read-out: GI50) of 1.54 µM and a CC50 (A498; [20]) of 7.38 µM. The TGI (A498; read-out: TGI) was 3.37 µM, the GI50 (A498; read-out: pGI50 (converted)) was 1.55 µM and the CC50 (A498; [21]) was 7.41 µM. It also gave a TGI (A498; read-out: pTGI (converted)) of 3.39 µM, a growth at 100 µM (HCT-15) of -64% and a GI50 (MDA-MB-435 [8]; read-out: GI50) of 2.21 µM. It also gave a CC50 (MDA-MB-435 [8]; [20]) greater than 100 µM, a TGI (MDA-MB-435 [8]; read-out: TGI) of 5.9 µM and a GI50 (MDA-MB-435 [8]; read-out: pGI50 (converted)) of 2.19 µM. It also gave a CC50 (MDA-MB-435 [8]; [21]) greater than 100 µM, a TGI (MDA-MB-435 [8]; read-out: pTGI (converted)) of 5.89 µM and a GI50 (OVCAR-3; read-out: GI50) of 1.95 µM. The TGI (OVCAR-3; read-out: TGI) was 3.61 µM, the GI50 (OVCAR-3; read-out: pGI50 (converted)) was 1.95 µM and the TGI (OVCAR-3; read-out: pTGI (converted)) was 3.63 µM. For the same compound, the growth at 0.01 µM (MDA-MB-435 [9]) was 98%, the GI50 (HOP-62; read-out: GI50) was 1.87 µM and the TGI (HOP-62; read-out: TGI) was 3.55 µM. The GI50 (HOP-62; read-out: pGI50 (converted)) was 1.86 µM, the TGI (HOP-62; read-out: pTGI (converted)) was 3.55 µM and the GI50 (NCI-H23; read-out: GI50) was 2.39 µM. The CC50 (NCI-H23; [20]) was 91.2 µM, the TGI (NCI-H23; read-out: TGI) was 5.93 µM and the GI50 (NCI-H23; read-out: pGI50 (converted)) was 2.4 µM. For the same compound, the CC50 (NCI-H23; [21]) was 91.2 µM, the TGI (NCI-H23; read-out: pTGI (converted)) was 5.89 µM and the GI50 ([10]; HCC 2998, read-out: GI50) was 1.88 µM. The CC50 ([10]; HCC 2998, read-out: LC50 (the source's name)) was 6.43 µM, the TGI ([10]; HCC 2998, read-out: TGI) was 3.47 µM and the GI50 ([10]; HCC 2998, read-out: pGI50 (converted)) was 1.86 µM. The CC50 ([10]; HCC 2998, read-out: pLC50 (the source's name) (converted)) was 6.46 µM, the TGI ([10]; HCC 2998, read-out: pTGI (converted)) was 3.47 µM and the GI50 (SNB-19; read-out: GI50) was 1.65 µM. The TGI (SNB-19; read-out: TGI) was 3.37 µM, the GI50 (SNB-19; read-out: pGI50 (converted)) was 1.66 µM and the TGI (SNB-19; read-out: pTGI (converted)) was 3.39 µM. For the same compound, the growth at 1 µM (COLO 205) was 104%, the growth at 1 µM (TK-10) was 106% and the growth at 0.1 µM (SR) was 81%. The growth at 0.01 µM (OVCAR-8 [11]) was 98%, the growth at 0.1 µM (CAKI-1) was 96% and the growth at 100 µM (SF-539) was -68%. For the same compound, the growth at 100 µM [12] was -38%, the growth at 0.1 µM (786-0) was 97% and the growth at 1 µM (M14) was 89%. It also gave a growth at 1 µM (NCI-H226 [13]) of 83%, a growth at 0.01 µM [14] of 94% and a GI50 (U-251 [15]; read-out: GI50) of 1.59 µM. It also gave a CC50 (U-251 [15]; [20]) of 6.6 µM, a TGI (U-251 [15]; read-out: TGI) of 3.24 µM and a GI50 (U-251 [15]; read-out: pGI50 (converted)) of 1.58 µM. For the same compound, the CC50 (U-251 [15]; [21]) was 6.61 µM, the TGI (U-251 [15]; read-out: pTGI (converted)) was 3.24 µM and the growth at 0.01 µM (RXF 393 [16]) was 93%. For the same compound, the growth at 0.1 µM (OVCAR-5) was 103%, the growth at 100 µM (T47D) was -36% and the GI50 (PC-3 [17]; read-out: GI50) was 1.34 µM. The CC50 (PC-3 [17]; [20]) was 6.01 µM, the TGI (PC-3 [17]; read-out: TGI) was 2.84 µM and the GI50 (PC-3 [17]; read-out: pGI50 (converted)) was 1.35 µM. It also gave a CC50 (PC-3 [17]; [21]) of 6.03 µM, a TGI (PC-3 [17]; read-out: pTGI (converted)) of 2.82 µM and a growth at 0.1 µM (PC-3 [18]) of 88%. For the same compound, the GI50 (BT-549; read-out: GI50) was 1.94 µM, the CC50 (BT-549; [20]) was 8.53 µM and the TGI (BT-549; read-out: TGI) was 4.06 µM. It also gave a GI50 (BT-549; read-out: pGI50 (converted)) of 1.95 µM, a CC50 (BT-549; [21]) of 8.51 µM and a TGI (BT-549; read-out: pTGI (converted)) of 4.07 µM. It also gave a growth at 0.1 µM (NCI-H226 [19]) of 94%.
